Assay results from patent US5593970A, “Heterocyclic anthracycline analogs” (priority 1994, dated 1997).
pIC50: −log10 of the molar value. Where two headings read alike, the source gives them in different places.

Legend:
Experiment in all cases: Microculture tetrazolium assay
Type in all cases: cell-based
T47D = settings: read-out: IC50
LOX = tested on: LOX
HT29 = settings: read-out: IC50
SKOV3 = settings: read-out: IC50
SKVLB = settings: for pIC50: SKVLB, read-out: IC50; for VLB/OV3: IC50 ratio SKVLB/SKOV3

Structure (SMILES) | pIC50 (T47D; Homo sapiens) | pIC50 (LOX; read-out: IC50) | pIC50 (HT29; Homo sapiens, HT-29, HT29) | pIC50 (SKOV3; Homo sapiens, SK-OV-3, SKOV3) | pIC50 (SKVLB) | pIC50 (SKVLB; listed as BCH1157) | pIC50 (T47D) | pIC50 (HT29; HT29) | pIC50 (SKOV3; SKOV3) | pIC50 (SKVLB; listed as BCH1158) | VLB/OV3 (SKVLB) | pIC50 (LOX) | VLB/OV3 (SKVLB; listed as BCH1157) | VLB/OV3 (SKVLB; listed as BCH1158)
CC1(C2CC3=C(CO2)C(=O)c2cc4ccccc4c(O)c2C3=O)OCCCO1 (centres unmarked) [BCH-1109] | 4.33 | 4.12 | 4.20 | 4.21 | 4.00 |  |  |  |  |  |  |  |  | 
CC(=O)Oc1c2c(c(O)c3ccccc13)C(=O)C1=C(CC(C3(C)OCCCO3)OC1)C2=O (centres unmarked) [BCH-1110] | 4.00 | 4.00 | 4.54 | 4.00 | 4.00 |  |  |  |  |  |  |  |  | 
CC(=O)Oc1c2c(c(O)c3ccccc13)C(=O)C1=C(COC(C3(C)OCCCO3)C1)C2=O (centres unmarked) [BCH-1111] | 4.00 | 4.01 | 4.00 | 4.00 | 4.25 |  |  |  |  |  |  |  |  | 
CC1(C2CC3=C(CO2)C(=O)c2c(cc4ccccc4c2O)C3=O)OCCO1 (centres unmarked) [BCH-1112] | 5.04 | 5.27 | 5.26 | 5.29 | 5.55 |  |  |  |  |  | 0.55 |  |  | 
CC1(C2Cc3c(O)c4c(c(O)c3CO2)C(=O)c2ccccc2C4=O)OCCO1 (centres unmarked) [BCH-1114] | 4.00 | 4.00 | 4.16 | 4.19 | 4.00 |  |  |  |  |  |  |  |  | 
CC1(C2Cc3c(O)c4c(c(O)c3CO2)C(=O)c2ccccc2C4=O)OCCCO1 (centres unmarked) [BCH-1115] | 4.90 | 5.15 | 5.20 | 5.03 | 4.94 |  |  |  |  |  | 1.24 |  |  | 
CC(=O)C1Cc2c(O)c3c(c(O)c2C(O)O1)C(=O)c1ccccc1C3=O (centres unmarked) [BCH-1116] | 4.95 | 4.50 | 5.12 | 4.58 | 4.67 |  |  |  |  |  | 0.82 |  |  | 
CC(=O)[C@@H]1CC2=C(C(=O)c3cc4ccccc4c(O)c3C2=O)[C@@H](O[C@H]2C[C@H](O)[C@H](O)[C@H](C)O2)O1 [BCH-1124, (1'S,1R,3S)-Methyl-[6-hydroxy-1-(2',3',6'-trideoxy-3',4'-dihydroxy-L-lyxohexopyranose)-5,12-dioxo-2,3,5,12-tetrahydroxyanthraceno(2,3-C)pyran-3-yl]ketone] | 5.22 |  | 5.84 | 5.30 | 5.66 |  |  |  |  |  | 0.44 | 5.73 |  | 
C[C@@H]1O[C@@H](O[C@H]2O[C@H](C(=O)COC(=O)C(C)(C)C)CC3=C2C(=O)c2cc4ccccc4c(O)c2C3=O)C[C@H](NC(=O)C(F)(F)F)[C@@H]1O [BCH-1136, (1'S,1R,3S)-1,2,3,4,5,12-hexahydro-6-hydroxy-3-trimethylacetoxyaceto-1-N-trifluoroacetyl-L-daunosamine-(2-oxo)-naphthacene-5,12-dione] | 4.72 | 4.91 | 4.94 | 4.74 | 4.64 |  |  |  |  |  | 1.28 |  |  | 
C[C@@H]1O[C@@H](O[C@@H]2O[C@@H](C(=O)COC(=O)C(C)(C)C)CC3=C2C(=O)c2cc4ccccc4c(O)c2C3=O)C[C@H](NC(=O)C(F)(F)F)[C@@H]1O [BCH-1137, (1'S,1S,3R)-1,2,3,4,5,12-hexahydro-6-hydroxy-3-trimethylacetoxyaceto-1-N-trifluoroacetyl-L-daunosamine-(2-oxo) naphthacene-5,12-dione] | 5.08 | 5.05 | 5.20 | 4.86 | 4.85 |  |  |  |  |  | 1.03 |  |  | 
COC(=O)C1CC2=C(CS1)C(=O)c1cc3ccccc3c(O)c1C2=O (centres unmarked) [BCH-1149] | 4.41 | 4.60 | 4.53 | 4.52 | 4.38 |  |  |  |  |  | 1.38 |  |  | 
COC(=O)C1CC2=C(CS1)C(=O)c1c(cc3ccccc3c1O)C2=O (centres unmarked) [BCH-1150] | 4.11 | 4.07 | 4.19 | 4.00 | 4.00 |  |  |  |  |  |  |  |  | 
CC(=O)C1CC2=C(CS1)C(=O)c1cc3ccccc3c(O)c1C2=O (centres unmarked) [BCH-1151] | 4.20 | 4.52 | 4.23 | 4.27 | 4.12 |  |  |  |  |  | 1.41 |  |  | 
CC(=O)C1CC2=C(CS1)C(=O)c1c(cc3ccccc3c1O)C2=O (centres unmarked) [BCH-1152] | 4.00 | 4.00 | 4.00 | 4.00 | 4.00 |  |  |  |  |  |  |  |  | 
CC(=O)C1Cc2c(O)c3c(c(O)c2C(O[C@H]2C[C@H](N=[N+]=[N-])[C@H](I)[C@H](C)O2)O1)C(=O)c1ccccc1C3=O (some centres unmarked) [BCH-1156] | 4.00 | 4.00 | 4.44 | 4.58 | 4.00 |  |  |  |  |  |  |  |  | 

Continued, in another order:

pIC50 (T47D; Homo sapiens) | pIC50 (LOX; read-out: IC50) | pIC50 (HT29; Homo sapiens, HT-29, HT29) | pIC50 (SKOV3; Homo sapiens, SK-OV-3, SKOV3) | pIC50 (SKVLB) | pIC50 (SKVLB; listed as BCH1157) | pIC50 (T47D) | pIC50 (HT29; HT29) | pIC50 (SKOV3; SKOV3) | pIC50 (SKVLB; listed as BCH1158) | Structure (SMILES) | VLB/OV3 (SKVLB) | pIC50 (LOX) | VLB/OV3 (SKVLB; listed as BCH1157) | VLB/OV3 (SKVLB; listed as BCH1158)
5.42 | 5.91 | 6.36 | 5.85 | 5.89 |  |  |  |  |  | CC(=O)[C@H]1CC2=C(C(=O)c3cc4ccccc4c(O)c3C2=O)[C@H](O[C@H]2C[C@H](O)[C@H](O)[C@H](C)O2)O1 [BCH-1123, (1'S,1S,3R)-Methyl-[6-hydroxy-1-(2',3',6'-trideoxy-3',4'-dihydroxy-L-lyxohexopyranose)-5,12-dioxo-3,4,5,12-tetrahydroanthraceno(2,3-C)pyran-3-yl]ketone] | 0.92 |  |  | 
5.33 | 5.54 | 5.53 | 5.52 | 4.83 |  |  |  |  |  | C[C@@H]1O[C@@H](O[C@H]2O[C@H](C3(CO)OCCCO3)CC3=C2C(=O)c2cc4ccccc4c(O)c2C3=O)C[C@H](N)[C@@H]1O [BCH-1153] | 4.93 |  |  | 
4.85 | 5.43 | 5.07 | 5.05 | 4.55 |  |  |  |  |  | C[C@@H]1O[C@@H](O[C@@H]2O[C@@H](C3(CO)OCCCO3)CC3=C2C(=O)c2cc4ccccc4c(O)c2C3=O)C[C@H](N)[C@@H]1O [BCH-1154] | 3.18 |  |  | 
5.07 | 5.40 | 5.06 | 5.20 | 5.15 |  |  |  |  |  | C=C[C@H]1CC2=C(C(=O)c3cc4ccccc4c(O)c3C2=O)[C@H](O[C@H]2C[C@H](NC(=O)C(F)(F)F)[C@H](O)[C@H](C)O2)O1 [BCH-1155] | 1.12 |  |  | 
4.42 | < 4.00 | 4.89 | 4.83 |  | 4.68 |  |  |  |  | CC(=O)C1CC2=C(C(=O)c3cc4ccccc4c(O)c3C2=O)C(OC2CC(N=[N+]=[N-])C(I)C(C)O2)O1 (centres unmarked) [BCH-1157] |  |  | 1.43 | 
 | < 4.00 |  |  |  |  | 4.59 | 5.08 | 5.08 | 5.21 | CC(=O)C1CC2=C(C(=O)c3cc4ccccc4c(O)c3C2=O)C(OC2CC(N=[N+]=[N-])C(I)C(C)O2)O1 (centres unmarked) [BCH-1158] |  |  |  | 0.74
4.50 | 4.63 | 5.00 | 4.52 | 4.38 |  |  |  |  |  | CC(=O)O[C@@H]1[C@H](C)O[C@@H](O[C@H]2O[C@H](C(C)=O)CC3=C2C(=O)c2cc4ccccc4c(O)c2C3=O)C[C@@H]1OC(C)=O [BCH-1165, (1'S,1R,3S)-methyl-(6-hydroxy-1-(2',3',4',6'-tetradeoxy-3',4'-diacetyl-L-lyxohexopyranose)-5,12-dioxo-3,4,5,12-tetrahydroanthraceno-[2,3-c]pyran-3-yl) ketone] | 1.38 |  |  | 
